This is an account of results in PMC8222276 (Communications Biology, 2021).

Assay [1] addresses T1, CGRP receptor (CLR-RAMP1) in RAMP1-HUVECs (Homo sapiens, UniProt O60894+Q16602).
T1 construct: biased agonism at the endogenous CLR in a physiological system; the open reading frame of RAMP1 into our HUVEC∆RAMP2 cell line; host or cells: HUVEC-∆RAMP2 (CRISPR-Cas9 RAMP2 knockout pool), lentiviral transduction, blasticidin selection
The assay is described as follows: cAMP accumulation in RAMP1-HUVECs. To be noted: RAMP1-HUVEC, 30 min, relative to 100 μM forskolin, mean ± SEM. The assay is classed as cell-based. On the procedure:
(§1) Data are analysed using a three-parameter non-linear regression curve or the operational model of receptor agonism. g–h Signalling bias plots were calculated as ∆Log(τ/KA) (g) or ∆∆Log(τ/KA) (h) for each agonist and for each signalling pathway. […] All data represent mean ± SEM for n repeats.
All primary cell lines were cultured as above. On the day of the experiment media was removed and cells washed with PBS, before being dissociated with Trypsin-EDTA 0.05% (Gibco, UK) and then resuspended in PBS/BSA (0.1%) (Sigma, UK). Cells were immediately plated for use in cAMP assay as per the manufacturer’s instructions, reagents used were provided by the LANCE® cAMP detection assay kit (PerkinElmer, Boston, MA, USA), in 384 well optiplates (PerkinElmer (Boston, MA, USA)) at 2000 cells/well in 5 μl aliquots. […] Cells were incubated with compound for 30 min prior to adding detection buffer[28],[60]. Plates were incubated for a further 60 min (room temperature) and then read on a plate reader (Mithras LB 940 microplate reader (Berthold technologies, Germany)). All responses were normalised to 100μM forskolin (Tocris, UK). Antagonist studies were performed in the same way through co-stimulation of the relevant concentration. Alongside control-treated cell. […]
All sample sizes were determined, and data analysed, in accordance with the guidelines described by Curtis M et al.[65]. […]

Assay [2] has as its target T2, CGRP receptor (CLR-RAMP1) in human cardiomyocytes (HCMs) (Homo sapiens, UniProt O60894+Q16602).
T2 construct: primary human cardiomyocytes (HCMs) since these cells only expressed CLR and RAMP1; host or cells: primary human cardiomyocytes (HCMs)
The assay is described as follows: cAMP accumulation in HCMs. The assay is classed as cell-based. Particulars: HCM, 30 min, relative to 100 μM forskolin, mean ± SEM. As to the method: (§2) Data are analysed using a three-parameter non-linear regression curve or the operational model of receptor agonism. g, h Signalling bias plots were calculated as ∆Log(τ/KA) (g) or ∆∆Log(τ/KA) (h) for each agonist and for each signalling pathway. […] All data represent mean ± SEM for n repeats.
All primary cell lines were cultured as above. On the day of the experiment media was removed and cells washed with PBS, before being dissociated with Trypsin-EDTA 0.05% (Gibco, UK) and then resuspended in PBS/BSA (0.1%) (Sigma, UK). […] Plates were incubated for a further 60 min (room temperature) and then read on a plate reader (Mithras LB 940 microplate reader (Berthold technologies, Germany)). […]
(§3) All sample sizes were determined, and data analysed, in accordance with the guidelines described by Curtis M et al.[65]. […] Statistical differences were analysed using one-way ANOVA followed by Dunnett’s post-hoc (for comparisons amongst more than two groups) or unpaired Student’s t test with Welch’s correction (for comparison between two groups). […] Having obtained values for τ and KA these were then used to quantify signalling bias as the change in Log(τ/KA)[19],[28]. […]
In general terms: cAMP levels reflect the balance of adenylyl cyclase and phosphodiesterase activity.

The target in assay [3] is T2, CGRP receptor (CLR-RAMP1) in human cardiomyocytes (HCMs). Briefly: total NO production in HCMs. The assay is classed as cell-based. To be noted: HCM, 15 min, relative to 10 μM isoproterenol, mean ± SEM. As to the method:
as §2
Endothelial cells and HCMs were cultured as above. 24 h prior to assay cells were plated on Costar 96-well black clear bottom plates at 40,000 cells/well. The assay was performed according to the manufacturer’s protocol. Briefly, cells pre-incubated with NO dye and assay buffer 1 (Fluorometric Nitric Oxide Assay Kit, Abcam, UK) for 30 min at 37 °C in 5% CO2. […] Stain and ligand solution was removed, assay buffer II was added, and wells were read immediately. The absorbance was measured using a Tecan T200 (Thermo Fisher Scientific UK) reader with an excitation/emission of 540/590 nm. […]
as §3

Another assay concerns RAMP1-HUVECs. Briefly: cell proliferation (72 h) of RAMP1-HUVECs. It is filed as cell-based, human. To be noted: RAMP1-HUVEC. On the procedure: as §1
Both endothelial cell lines and HCMs were seeded at a density of 2500 cells/well in a clear flat bottom 96-well plate (Corning, UK) and incubated at 37 °C in 5% CO2. After 24 h, cells were exposed to test compounds or vehicle, in complete endothelial cell growth media (HUVECs) or myocyte growth media (HCMs). Cells were incubated for a further 72 h at 37 °C in 5% CO2. After 72 h incubation, 5 μl of Cell Counting Kit–8 (CCK-8, Sigma, UK) was added to each well and cells were then incubated for another 2 h at 37 °C in 5% CO2 and in the dark[61]. The absorbance of each well was measured using a Mithras LB940 microplate reader with an excitation of 450 nm. The absorbance is directly proportional to the number of viable cells. Cell proliferation was calculated as a percentage of number of cells treated with vehicle alone.
All sample sizes were determined, and data analysed, in accordance with the guidelines described by Curtis M et al.[65]. All experiments were appropriately controlled using ‘system pathway’ agonists. If any of these pathway controls generated inappropriate responses, then the entire data set was removed from analysis.

Where [4] appears, read: proliferation, operational model, mean ± SEM.

One may read the pEC50 as the EC50 on a negative log10 scale, so that one unit is a factor of ten. A higher pEC50 goes with a small EC50.

T2 sequence (Q16602 23-461): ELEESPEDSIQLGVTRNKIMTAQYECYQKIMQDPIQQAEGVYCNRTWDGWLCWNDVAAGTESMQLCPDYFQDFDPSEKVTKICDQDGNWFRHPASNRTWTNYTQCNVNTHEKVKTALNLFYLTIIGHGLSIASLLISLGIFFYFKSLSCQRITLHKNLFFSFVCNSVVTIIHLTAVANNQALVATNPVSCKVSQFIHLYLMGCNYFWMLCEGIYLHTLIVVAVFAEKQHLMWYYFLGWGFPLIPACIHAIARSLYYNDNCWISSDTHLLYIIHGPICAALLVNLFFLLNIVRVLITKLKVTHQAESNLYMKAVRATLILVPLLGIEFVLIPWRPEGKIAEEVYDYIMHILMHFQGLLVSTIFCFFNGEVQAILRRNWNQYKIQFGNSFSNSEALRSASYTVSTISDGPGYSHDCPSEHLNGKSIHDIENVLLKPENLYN
T2 sequence (O60894 27-148): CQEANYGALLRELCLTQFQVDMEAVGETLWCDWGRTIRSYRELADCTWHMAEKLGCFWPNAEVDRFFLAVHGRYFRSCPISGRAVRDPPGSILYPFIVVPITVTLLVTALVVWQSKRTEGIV
T1 sequence (Q16602 23-461): as the sequence (Q16602 23-461) above
T1 sequence (O60894 27-148): as the sequence (O60894 27-148) above

For the molecule `CC[C@H](C)[C@H](NC(=O)[C@H](CCC(N)=O)NC(=O)[C@H](Cc1c[nH]cn1)NC(=O)[C@H](C)NC(=O)[C@H](CC(C)C)NC(=O)[C@H](CCCCN)NC(=O)[C@H](CCC(N)=O)NC(=O)[C@@H](NC(=O)[C@@H](NC(=O)[C@@H]1CSSC[C@H](NC(=O)CNC(=O)[C@H](Cc2ccccc2)NC(=O)[C@H](CO)NC(=O)[C@H](CCCNC(=N)N)NC(=O)[C@H](CC(C)C)NC(=O)CNC(=O)[C@H](CCC(N)=O)NC(=O)[C@H](Cc2ccccc2)NC(=O)[C@H](CC(N)=O)NC(=O)[C@H](CC(N)=O)NC(=O)[C@H](CCSC)NC(=O)[C@H](CO)NC(=O)[C@H](CCC(N)=O)NC(=O)[C@H](CCCNC(=N)N)NC(=O)[C@@H](N)Cc2ccc(O)cc2)C(=O)N[C@@H](CCCNC(=N)N)C(=O)N[C@@H](Cc2ccccc2)C(=O)NCC(=O)N[C@@H]([C@@H](C)O)C(=O)N1)[C@@H](C)O)C(C)C)C(=O)N[C@@H](Cc1ccc(O)cc1)C(=O)N[C@@H](CCC(N)=O)C(=O)N[C@@H](Cc1ccccc1)C(=O)N[C@H](C(=O)N[C@@H](CC(=O)O)C(=O)N[C@@H](CCCCN)C(=O)N[C@@H](CC(=O)O)C(=O)N[C@@H](CCCCN)C(=O)N[C@@H](CC(=O)O)C(=O)N[C@@H](CC(N)=O)C(=O)N[C@H](C(=O)N[C@@H](C)C(=O)N1CCC[C@H]1C(=O)N[C@@H](CCCNC(=N)N)C(=O)N[C@@H](CO)C(=O)N[C@@H](CCCCN)C(=O)N[C@H](C(=O)N[C@@H](CO)C(=O)N1CCC[C@H]1C(=O)N[C@@H](CCC(N)=O)C(=O)NCC(=O)N[C@@H](Cc1ccc(O)cc1)C(N)=O)[C@@H](C)CC)C(C)C)[C@@H](C)O` [AM, adrenomedullin], the values for the Emax in assay [1], in assay [2] and in assay [3] were 39 ± 2.08%, 63 ± 3.14% and 47 ± 5.85%, respectively.
Consider `CSCC[C@H](NC(=O)[C@H](CC(C)C)NC(=O)[C@H](CCC(N)=O)NC(=O)[C@H](Cc1c[nH]c2ccccc12)NC(=O)[C@H](CC(C)C)NC(=O)[C@H](CCCNC(=N)N)NC(=O)[C@H](Cc1c[nH]cn1)NC(=O)[C@H](CO)NC(=O)[C@H](CC(C)C)NC(=O)[C@H](CC(N)=O)NC(=O)[C@H](CCC(N)=O)NC(=O)[C@@H](NC(=O)[C@H](CCC(N)=O)NC(=O)[C@@H]1CSSC[C@H](NC(=O)CNC(=O)[C@@H](NC(=O)[C@H](CCCNC(=N)N)NC(=O)[C@H](CC(C)C)NC(=O)[C@H](CC(C)C)NC(=O)[C@H](CCC(N)=O)NC(=O)[C@H](C)NC(=O)[C@H](CCC(N)=O)NC(=O)[C@@H](N)[C@@H](C)O)C(C)C)C(=O)N[C@@H](C(C)C)C(=O)N[C@@H](CC(C)C)C(=O)NCC(=O)N[C@@H]([C@@H](C)O)C(=O)N1)C(C)C)C(=O)NCC(=O)N1CCC[C@H]1C(=O)N[C@@H](C)C(=O)NCC(=O)N[C@@H](CCCNC(=N)N)C(=O)N[C@@H](CCC(N)=O)C(=O)N[C@@H](CC(=O)O)C(=O)N[C@@H](CO)C(=O)N[C@@H](C)C(=O)N1CCC[C@H]1C(=O)N[C@H](C(=O)N[C@@H](CC(=O)O)C(=O)N1CCC[C@H]1C(=O)N[C@@H](CO)C(=O)N[C@@H](CO)C(=O)N1CCC[C@H]1C(=O)N[C@@H](Cc1c[nH]cn1)C(=O)N[C@@H](CO)C(=O)N[C@@H](Cc1ccc(O)cc1)C(N)=O)C(C)C` [AM2, adrenomedullin 2], for which, in the assay with RAMP1-HUVECs (Growth, calculated from Table S2), the “Transducer coefficient Log(τ/KA)” value was 5.73±0.56. Moreover, the promotion of growth entry in the assay with RAMP1-HUVECs (72 h) is “could also promote growth”. Besides, in the assay on RAMP1-HUVECs (proliferation, 72 h, CCK-8, mean ± SEM), the Emax was 201.29±11.45%. Also, the pEC50 in the assay on RAMP1-HUVECs (proliferation, 72 h, mean ± SEM of 3-6 data sets) is 5.85±0.17. Moreover, in the assay with RAMP1-HUVECs (setting [4]), the logτ was 0.71±0.34 and the pKA stood at 5.02±0.44.
